Experimental data: ChEMBL document CHEMBL4706653, “Ultra-short lipopeptides against gram-positive bacteria while alleviating antimicrobial resistance” (Eur J Med Chem, 2021)
Calls of active or inactive are those of the source. The calls are words filed in the database; no cut-off is given here. Residues, ends and D or L forms follow the SMILES beside them. *: point of attachment. Myristoyl = CCCCCCCCCCCCCC(=O)*; Lauroyl = CCCCCCCCCCCC(=O)*

Key:
[1] = Stability in mouse serum assessed as drug degradation at volume ratio of 1:19 measured after 6 hrs by RP-HPLC analysis; format: ADME, cell-free; details: read-out: Drug degradation
Staphylococcus aureus [2] = assay: Antimicrobial activity against Staphylococcus aureus ATCC 25923 assessed as bacterial killing at 2 to 4 times MIC preincubated for 30 mins followed by replating on MHB agar and measured after 24 hrs by time kill assay; format: functional, organism-based; details: time 24.5 hrs
Staphylococcus aureus [3] = assay: Antimicrobial activity against Staphylococcus aureus ATCC 25923 assessed as bacterial killing at 0.5 times MIC preincubated for 4 hrs followed by replating on MHB agar and measured after 24 hrs by time kill assay; format: functional, organism-based; details: time 28.0 hrs
Staphylococcus aureus [4] = assay: Antibiofilm activity against Staphylococcus aureus ATCC 25923 preformed biofilm assessed as preformed biofilm thickness at 64 uM after 24 hrs using LIVE/LEAD (SYTO-9/PI) staining by confocal laser scanning microscopy based 3D image analysis (reference value: 56 micrometer); format: functional
Cell membrane [5] = assay: Induction of cytoplasmic membrane disruption in Staphylococcus aureus ATCC 25923 at 0.5 to 4 times MIC measured for 15 mins by DiSC3-5 dye based fluorescence assay
[6] = Cytotoxicity against HEK293T cells assessed as cell viability at 128 uM measured after 24 hrs by MTT assay relative to control; format: cell-based, HEK-293T; details: human, read-out: Activity
[7] = Toxicity in BALB/c mouse assessed as effect on body weight at 20 to 80 mg/kg, ip administered as single dose measured for 5 days; format: organism-based; details: in vivo, 120 h, dose 20-80 mg/kg, time 5 day
[8] = Toxicity in BALB/c mouse assessed as ruffled fur at 80 mg/kg, ip administered as single dose measured for 5 days; format: organism-based; details: in vivo, 120 h, time 5 day
[9] = Toxicity in BALB/c mouse assessed as effect on motility at 80 mg/kg, ip administered as single dose measured for 5 days; format: organism-based; details: in vivo, 120 h, time 5 day
[10] = Toxicity in BALB/c mouse assessed as inflammatory cell infiltration in liver at 80 mg/kg, ip administered as single dose measured after 5 days; format: organism-based; details: in vivo, 120 h, time 5 day
[11] = Toxicity in BALB/c mouse assessed as inflammatory cell infiltration in liver at 20 to 40 mg/kg, ip administered as single dose measured after 5 days; format: organism-based; details: in vivo, 120 h, dose 20-40 mg/kg, time 5 day
[12] = Toxicity in BALB/c mouse assessed as swelling of renal tubular epithelial cells at 80 mg/kg, ip administered as single dose measured after 5 days; format: organism-based; details: in vivo, 120 h, time 5 day
[13] = Toxicity in BALB/c mouse assessed as eosinophilic mass in the renal tubular lumen at 80 mg/kg, ip administered as single dose measured after 5 days; format: organism-based; details: in vivo, 120 h, time 5 day
[14] = Toxicity in BALB/c mouse assessed as inflammatory cell infiltration in kidney at 80 mg/kg, ip administered as single dose measured after 5 days; format: organism-based; details: in vivo, 120 h, time 5 day
Staphylococcus aureus [15] = assay: Antimicrobial activity against Staphylococcus aureus ATCC 25923 infected in neutropenia BALB/c mouse assessed as reduction in lung bacterial load at 10 to 20 mg/kg, ip administered staring from 2 hrs post infection and measured 8 hrs post-infected; format: functional, organism-based; details: dose 10-20 mg/kg, time 6.0 hrs
Staphylococcus aureus [16] = assay: Antimicrobial activity against Staphylococcus aureus ATCC 25923 infected in neutropenia BALB/c mouse assessed as reduction in bacterial load in spleen at 10 to 20 mg/kg, ip administered staring from 2 hrs post infection and measured 8 hrs post-infected; format: functional, organism-based; details: dose 10-20 mg/kg, time 6.0 hrs
Staphylococcus aureus [17] = assay: Antimicrobial activity against Staphylococcus aureus ATCC 25923 infected in neutropenia BALB/c mouse assessed as reduction in bacterial load in kidney at 10 to 20 mg/kg, ip administered staring from 2 hrs post infection and measured 8 hrs post-infected; format: functional, organism-based; details: dose 10-20 mg/kg, time 6.0 hrs
Staphylococcus aureus [18] = assay: Antimicrobial activity against Staphylococcus aureus ATCC 25923 infected in neutropenia BALB/c mouse assessed as reduction in bacterial load in liver at 10 to 20 mg/kg, ip administered staring from 2 hrs post infection and measured 8 hrs post-infected; format: functional, organism-based; details: dose 10-20 mg/kg, time 6.0 hrs
Staphylococcus aureus [19] = assay: Antimicrobial activity against Staphylococcus aureus ATCC 25923 infected in neutropenia BALB/c mouse assessed as reduction in lung bacterial load at 10 mg/kg, ip administered staring from 2 hrs post infection and measured 8 hrs post-infected in presence of ciprofloxacin; format: functional, organism-based; details: time 6.0 hrs
Staphylococcus aureus [20] = assay: Antimicrobial activity against Staphylococcus aureus ATCC 25923 infected in neutropenia BALB/c mouse assessed as reduction in bacterial load in spleen at 10 mg/kg, ip administered staring from 2 hrs post infection and measured 8 hrs post-infected in presence of ciprofloxacin; format: functional, organism-based; details: time 6.0 hrs
Staphylococcus aureus [21] = assay: Antimicrobial activity against Staphylococcus aureus ATCC 25923 infected in neutropenia BALB/c mouse assessed as reduction in bacterial load in kidney at 10 mg/kg, ip administered staring from 2 hrs post infection and measured 8 hrs post-infected in presence of ciprofloxacin; format: functional, organism-based; details: time 6.0 hrs
Staphylococcus aureus [22] = assay: Antimicrobial activity against Staphylococcus aureus ATCC 25923 infected in neutropenia BALB/c mouse assessed as reduction in bacterial load in liver at 10 mg/kg, ip administered staring from 2 hrs post infection and measured 8 hrs post-infected in presence of ciprofloxacin; format: functional, organism-based; details: time 6.0 hrs
Mus musculus = assay: Antiinflammatory activity in Staphylococcus aureus ATCC 25923 infected neutropenia BALB/c mouse assessed as reduction in TNFalpha level in serum at 10 mg/kg, ip administered staring from 2 hrs post infection and measured 8 hrs post-infected in presence of ciprofloxacin; format: functional, organism-based; details: time 6.0 hrs
Staphylococcus aureus [23] = assay: Ratio of MIC for antimicrobial activity against Staphylococcus aureus ATCC 25923 in presence of 2.5% serum to MIC for antimicrobial activity against Staphylococcus aureus ATCC 25923 in absence of serum; format: functional
[24] = Stability in mouse serum assessed as parent compound remaining at volume ratio of 1:19 measured after 6 hrs by RP-HPLC analysis; format: ADME, cell-free; details: read-out: Stabilty
Staphylococcus aureus [25] = assay: Antimicrobial activity against Staphylococcus aureus ATCC 25923 assessed as reduction in bacterial growth at 0.5 times MIC preincubated for 4 hrs followed by replating on MHB agar and measured after 24 hrs by time kill assay; format: functional, organism-based; details: time 28.0 hrs
Staphylococcus aureus [26] = assay: Antimicrobial activity against Staphylococcus aureus ATCC 25923 assessed as bacterial killing at 4 times MIC preincubated for 30 mins followed by replating on MHB agar and measured after 24 hrs by time kill assay; format: functional, organism-based; details: time 24.5 hrs
Staphylococcus aureus [27] = assay: Antimicrobial activity against Staphylococcus aureus ATCC 25923 assessed as bacterial killing at 2 times MIC preincubated for 2 hrs followed by replating on MHB agar and measured after 24 hrs by time kill assay; format: functional, organism-based; details: time 26.0 hrs
Staphylococcus aureus [28] = assay: Antimicrobial activity against Staphylococcus aureus ATCC 25923 assessed as reduction in bacterial growth at 0.5 to 1 times MIC preincubated for 4 hrs followed by replating on MHB agar and measured after 24 hrs by time kill assay; format: functional, organism-based; details: time 28.0 hrs
Cell membrane [29] = assay: Induction of cytoplasmic membrane disruption in Staphylococcus aureus ATCC 25923 measured for 15 mins by DiSC3-5 dye based fluorescence assay
Cell membrane [30] = assay: Induction of membrane disruption in Staphylococcus aureus ATCC 25923 assessed as PI-positive cells at 4 times MIC measured after 30 mins by propidium iodide staining based flow cytometry relative to control

CCCCCCCCCCCCCC(=O)N[C@@H](CCCNC(=N)N)C(=O)N[C@@H](Cc1c[nH]c2ccccc12)C(=O)N[C@@H](Cc1c[nH]c2ccccc12)C(N)=O (Myristoyl-Arg-Trp-Trp-NH2)
metabolised at 6 h [1]: 70%
Activity (Staphylococcus aureus [2]): Active
Activity (Staphylococcus aureus [3]): inactive
Activity (Staphylococcus aureus [4]): 24 um
Activity (Cell membrane [5]): Active
viability at 24 h, 128 µM [6]: > 80%
Activity [7]: Toxic
Activity [8]: Toxic
Activity [9]: Toxic
Activity [10]: Toxic
Activity [11]: Non-Toxic
Activity [12]: Toxic
Activity [13]: Toxic
Activity [14]: Toxic
Activity (Staphylococcus aureus [15]): Active
Activity (Staphylococcus aureus [16]): Active
Activity (Staphylococcus aureus [17]): Active
Activity (Staphylococcus aureus [18]): Active
Activity (Staphylococcus aureus [19]): Active
Activity (Staphylococcus aureus [20]): Active
Activity (Staphylococcus aureus [21]): Active
Activity (Staphylococcus aureus [22]): Active
Activity (Mus musculus): Active

CCCCCCCCCCCC(=O)N[C@@H](CCCNC(=N)N)C(=O)N[C@@H](CCCNC(=N)N)C(=O)N[C@@H](Cc1c[nH]c2ccccc12)C(N)=O (Lauroyl-Arg-Arg-Trp-NH2)
Ratio (Staphylococcus aureus [23]): 8
remaining at 6 h [24]: 70%
Activity (Staphylococcus aureus [25]): Active
Activity (Staphylococcus aureus [26]): Active
Activity (Staphylococcus aureus [27]): Active
Activity (Staphylococcus aureus [28]): inactive
Activity (Staphylococcus aureus [4]): 40 um
Activity (Cell membrane [29]): Dose-dependent effect
Activity (Cell membrane [30]): 77.2%
